Data from US20140357655A1, “SPIROINDOLINE DERIVATIVES AS GONADOTROPIN- RELEASING HORMONE RECEPTOR ANTAGONISTS” (Bayer Intellectual Property GmbH, priority 2012, published 2014).

The molecules below were run against T1, human GnRH receptor (Homo sapiens, UniProt P30968) (assay: IP-One HTRF assay with buserelin (at EC80) stimulation). Settings: CHO cells stably expressing human GnRH receptor, read-out: Potency in IP-One HTRF assay, given as IC50.
T1 sequence (P30968 1-328): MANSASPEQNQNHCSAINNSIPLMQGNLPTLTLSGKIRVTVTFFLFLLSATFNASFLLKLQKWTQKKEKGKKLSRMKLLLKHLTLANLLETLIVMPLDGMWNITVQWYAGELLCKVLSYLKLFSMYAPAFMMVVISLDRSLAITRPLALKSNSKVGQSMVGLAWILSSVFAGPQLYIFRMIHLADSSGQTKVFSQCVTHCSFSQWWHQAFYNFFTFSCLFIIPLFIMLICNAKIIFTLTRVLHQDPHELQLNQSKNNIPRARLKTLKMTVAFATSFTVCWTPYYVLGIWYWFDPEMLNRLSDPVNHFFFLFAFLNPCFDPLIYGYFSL
Format: cell-based
Excerpt: 2.3. IP-One HTRF® Assay By using homogenous time-resolved fluorescence resonance energy transfer (HTRF), the generation of one component of the GnRH—R signalling cascade can be measured. After stimulation of CHO cells stably expressing human GnRH receptor (established by Prof. Thomas Gudermann, currently University of Marburg, Germany; supplied as frozen cell aliquots by Cell Culture Services, Hamburg, Germany) with the EC80 of the GnRH agonist buserelin, Gq protein-coupled receptor signalling cascade is activated resulting in PLC-dependent cleavage of PIP2 to Inositol-1,4,5-triphosphate (IP3) and Diacylglycerol. The second messenger IP3 is degraded intracellularly to myo-inositol. Inhibition of the final degradation step from Inositol-1-phosphate (IP1) to myo-inositol by addition of lithium chloride leads to accumulation of IP1 in the cells. In cell lysates, IP1 can be detected via an antibody-based HTRF detection technology, where IP1 can displace the FRET acceptor IP1-d2 from binding by Terbium-labelled anti-IP1 antibody as donor resulting in a signal decrease. Compounds were tested for their capability of inhibiting GnRH—R activation by buserelin. For all IP-One HTRF® assays reagents of Cisbio Bioassays (IP-One Tb Jumbo kit, #62IPAPEJ; Cisbio Bioassays, Bagnols sur Cèze Cedex, France) were used.
For the assay, frozen cell aliquots were thawed and a cell suspension (3.33×10^6 cells/mL) containing IP1-d2 (dilution 1:40) was prepared and incubated at 37° C. After 1 h 3 μl of the cell suspension were added to 50 nl of a 100-fold concentrated solution of the test compound in DMSO pre-dispensed in a well of a white low-volume 384-well microtiter plate (Greiner Bio-One, Frickenhausen, Germany). […] Plates were incubated for 1 h at 37° C. and 5% carbon dioxide before the cells were lysed by adding 3 μl Terbium-labelled anti-IP1 antibody (1:40) diluted in Conjugate & Lysis buffer as supplied with the kit. After an incubation for 1 h at 22° C. to enable complete cell lysis and antibody binding to free IP1 or IP1-d2, plates were measured in an HTRF reader, e.g. a RUBYstar, PHERAstar (both BMG Labtechnologies, Offenburg, Germany) or a Viewlux (PerkinElmer LAS, Rodgau-Jügesheim, Germany).
From the fluorescence emissions at 665 nm (FRET) and at 620 nm (background signal of Terbium-antibody), the ratio (emission at 665 nm divided by emission at 620 nm) was calculated and the data were normalized (reaction without test compound=0% inhibition; all other assay components except agonist=100% inhibition). On the same microtiter plate, compounds were tested at 10 different concentrations in the range of 20 μM to 1 nM (20 μM, 6.7 μM, 2.2 μM, 0.74 μM, 0.25 μM, 82 nM, 27 nM, 9.2 nM, 3.1 nM and 1 nM; dilution series prepared before the assay at the level of the 100-fold conc. stock solutions by serial 1:3 dilutions in 100% DMSO) in duplicate values for each concentration. By using an in-house software, the IC50 values were calculated by a 4 parameter fit.

Going from `O=C(NCc1ncc(F)cc1Cl)c1ccc2c(c1)C1(CCS(=O)(=O)CC1)C(C1CC1)N2S(=O)(=O)c1ccc(F)cc1` (single isomer, unassigned) [Example 17.2, N-[(3-chloro-5-fluoropyridin-2-yl)methyl]-2-cyclopropyl-1-[(4-fluorophenyl)sulfonyl]-1,2,2′,3′,5′,6′-hexahydrospiro[indole-3,4′-thiopyran]-5-carboxamide 1′,1′-dioxide] to `Cc1cccnc1CNC(=O)c1ccc2c(c1)C1(CCS(=O)(=O)CC1)C(C1CC1)N2S(=O)(=O)c1ccc(F)cc1` (single isomer, unassigned) [Example 31.1, 2-cyclopropyl-1-[(4-fluorophenyl)sulfonyl]-N-[(3-methylpyridin-2-yl)methyl]-1,2,2′,3′,5′,6′-hexahydrospiro[indole-3,4′-thiopyran]-5-carboxamide 1′,1′-dioxide], the IC50 falls from 2480 nM to 266 nM (9.3-fold). The second is the more potent here.

First: O=C(NCc1ccccc1Cl)c1ccc2c(c1)C1(CCS(=O)(=O)CC1)C(C1CC1)N2S(=O)(=O)c1ccc(F)cc1 (single isomer, unassigned) [Example 18.2, N-(2-chlorobenzyl)-2-cyclopropyl-1-[(4-fluorophenyl)sulfonyl]-1,2,2′,3′,5′,6′-hexahydrospiro[indole-3,4′-thiopyran]-5-carboxamide 1′,1′-dioxide]
Second: O=C(NCc1ccccc1C(F)(F)F)c1ccc2c(c1)C1(CCS(=O)(=O)CC1)C(C1CC1)N2S(=O)(=O)c1ccc(F)cc1 (single isomer, unassigned) [Example 32.1, 2-cyclopropyl-1-[(4-fluorophenyl)sulfonyl]-N-[2-(trifluoromethyl)benzyl]-1,2,2′,3′,5′,6′-hexahydrospiro[indole-3,4′-thiopyran]-5-carboxamide 1′,1′-dioxide]
The IC50 of the first is 150-fold higher: 5240 nM for the first, 34 nM for the second.

First: CS(=O)(=O)c1cccc(NC(=O)c2ccc3c(c2)C2(CCS(=O)(=O)CC2)C(C2CC2)N3S(=O)(=O)c2ccc(F)cc2)c1 (single isomer, unassigned) [Example 23.1, 2-cyclopropyl-1-[(4-fluorophenyl)sulfonyl]-N-(3-mesylphenyl)-1,2,2′,3′,5′,6′-hexahydrospiro[indole-3,4′-thiopyran]-5-carboxamide 1′,1′-dioxide]
Second: NS(=O)(=O)c1cccc(NC(=O)c2ccc3c(c2)C2(CCS(=O)(=O)CC2)C(C2CC2)N3S(=O)(=O)c2ccc(F)cc2)c1 (single isomer, unassigned) [Example 30.1, 2-cyclopropyl-1-[(4-fluorophenyl)sulfonyl]-N-(3-sulfamoylphenyl)-1,2,2′,3′,5′,6′-hexahydrospiro[indole-3,4′-thiopyran]-5-carboxamide 1′,1′-dioxide]
The IC50 of the first is 4.2-fold higher: 1870 nM for the first, 441 nM for the second. The second is the more potent here.

`CS(=O)(=O)c1cccc(NC(=O)c2ccc3c(c2)C2(CCS(=O)(=O)CC2)C(C2CC2)N3S(=O)(=O)c2ccc(F)cc2)c1` (single isomer, unassigned) [Example 23.2, 2-cyclopropyl-1-[(4-fluorophenyl)sulfonyl]-N-(3-mesylphenyl)-1,2,2′,3′,5′,6′-hexahydrospiro[indole-3,4′-thiopyran]-5-carboxamide 1′,1′-dioxide] and `NS(=O)(=O)c1cccc(NC(=O)c2ccc3c(c2)C2(CCS(=O)(=O)CC2)C(C2CC2)N3S(=O)(=O)c2ccc(F)cc2)c1` (single isomer, unassigned) [Example 30.2, 2-cyclopropyl-1-[(4-fluorophenyl)sulfonyl]-N-(3-sulfamoylphenyl)-1,2,2′,3′,5′,6′-hexahydrospiro[indole-3,4′-thiopyran]-5-carboxamide 1′,1′-dioxide] are within 1.5-fold of each other in IC50: 153 nM for the first, 190 nM for the second.

Compared with `Cc1cccnc1CNC(=O)c1ccc2c(c1)C1(CCS(=O)(=O)CC1)C(C1CC1)N2S(=O)(=O)c1ccc(F)cc1` (single isomer, unassigned) [Example 31.2, 2-cyclopropyl-1-[(4-fluorophenyl)sulfonyl]-N-[(3-methylpyridin-2-yl)methyl]-1,2,2′,3′,5′,6′-hexahydrospiro[indole-3,4′-thiopyran]-5-carboxamide 1′,1′-dioxide], `O=C(NCc1ccccc1C(F)(F)F)c1ccc2c(c1)C1(CCS(=O)(=O)CC1)C(C1CC1)N2S(=O)(=O)c1ccc(F)cc1` (single isomer, unassigned) [Example 32.2, 2-cyclopropyl-1-[(4-fluorophenyl)sulfonyl]-N-[2-(trifluoromethyl)benzyl]-1,2,2′,3′,5′,6′-hexahydrospiro[indole-3,4′-thiopyran]-5-carboxamide 1′,1′-dioxide] is 12-fold lower in IC50: 15100 nM for the first, 1260 nM for the second.

`O=C(NC1CCOc2ccccc21)c1ccc2c(c1)C1(CCS(=O)(=O)CC1)C(C1CC1)N2S(=O)(=O)c1ccc(F)cc1` (single isomer, unassigned) [Example 33.1, 2-cyclopropyl-N-(3,4-dihydro-2H-chromen-4-yl)-1-[(4-fluorophenyl)sulfonyl]-1,2,2′,3′,5′,6′-hexahydrospiro[indole-3,4′-thiopyran]-5-carboxamide 1′,1′-dioxide] and `O=C(NCC1CC1)c1ccc2c(c1)C1(CCS(=O)(=O)CC1)C(C1CC1)N2S(=O)(=O)c1ccc(F)cc1` (single isomer, unassigned) [Example 35.1, 2-cyclopropyl-N-(cyclopropylmethyl)-1-[(4-fluorophenyl)sulfonyl]-1,2,2′,3′,5′,6′-hexahydrospiro[indole-3,4′-thiopyran]-5-carboxamide 1′,1′-dioxide] are within 1.5-fold of each other in IC50: 425 nM for the first, 394 nM for the second.

`O=C(NC1CCOc2ccccc21)c1ccc2c(c1)C1(CCS(=O)(=O)CC1)C(C1CC1)N2S(=O)(=O)c1ccc(F)cc1` (single isomer, unassigned) [Example 33.2, 2-cyclopropyl-N-(3,4-dihydro-2H-chromen-4-yl)-1-[(4-fluorophenyl)sulfonyl]-1,2,2′,3′,5′,6′-hexahydrospiro[indole-3,4′-thiopyran]-5-carboxamide 1′,1′-dioxide] and `O=C(NCC1CC1)c1ccc2c(c1)C1(CCS(=O)(=O)CC1)C(C1CC1)N2S(=O)(=O)c1ccc(F)cc1` (single isomer, unassigned) [Example 35.2, 2-cyclopropyl-N-(cyclopropylmethyl)-1-[(4-fluorophenyl)sulfonyl]-1,2,2′,3′,5′,6′-hexahydrospiro[indole-3,4′-thiopyran]-5-carboxamide 1′,1′-dioxide] cannot be ordered by IC50: > 20000 nM for the first, > 20000 nM for the second.

Compared with `O=C(NC1CCOc2ccccc21)c1ccc2c(c1)C1(CCS(=O)(=O)CC1)C(C1CC1)N2S(=O)(=O)c1ccc(F)cc1` (single isomer, unassigned) [Example 33.3, 2-cyclopropyl-N-(3,4-dihydro-2H-chromen-4-yl)-1-[(4-fluorophenyl)sulfonyl]-1,2,2′,3′,5′,6′-hexahydrospiro[indole-3,4′-thiopyran]-5-carboxamide 1′,1′-dioxide], `COC(=O)c1cccc(NC(=O)c2ccc3c(c2)C2(CCS(=O)(=O)CC2)C(C2CC2)N3S(=O)(=O)c2ccc(F)cc2)c1` (single isomer, unassigned) [Example 34.1, methyl 3-[({2-cyclopropyl-1-[(4-fluorophenyl)sulfonyl]-1′,1′-dioxido-1,2,2′,3′,5′,6′-hexahydrospiro[indole-3,4′-thiopyran]-5-yl}carbonyl)amino]benzoate] is lower in IC50: > 20000 nM for the first, 38 nM for the second. The second is the more potent here.

`COC(=O)c1cccc(NC(=O)c2ccc3c(c2)C2(CCS(=O)(=O)CC2)C(C2CC2)N3S(=O)(=O)c2ccc(F)cc2)c1` (single isomer, unassigned) [Example 34.2, methyl 3-[({2-cyclopropyl-1-[(4-fluorophenyl)sulfonyl]-1′,1′-dioxido-1,2,2′,3′,5′,6′-hexahydrospiro[indole-3,4′-thiopyran]-5-yl}carbonyl)amino]benzoate] was tested, and the IC50 was 825 nM.
